According to patent publication US8686113B2 (priority 2009, dated 2014):
≈ marks a conversion by molar mass, not a printed value. Read-outs that look alike come from different tables or passages of the source. Non-standard residues stand in square brackets, D forms with d. Residues, ends and D or L forms follow the SMILES beside them. No end group written: not given here. *: point of attachment. Hyp = O=C(O)[C@@H]1C[C@@H](O)CN1; hArg = N=C(N)NCCCC[C@H](N)C(=O)O; β3hR = N=C(N)NCCC[C@H](N)CC(=O)O; Orn = NCCC[C@H](N)C(=O)O; NHPr = CCCN*

Key:
[1] = mouse, serum, Half-life in 25% mouse serum, 25% aqueous mouse serum, 37° C., 75 μg/mL peptide
Description: (§4) For this, the peptides and peptidomimetics were dissolved in water, mouse serum was added and the peptide concentration was adjusted to 75 μg/mL. While shaking continuously, the mixture was incubated at 37° C. After 0, 30, 60, 120, 240 and 360 minutes, in each case an aliquot was taken and mixed with 15% aqueous trichloroacetic acid (Carl Roth GmbH & Co. KG; Karlsruhe, Germany). After incubation on ice for a further 10 minutes, the precipitated serum proteins were centrifuged off (5 min, 13400 rpm, MiniSpin, Eppendorf AG, Hamburg, Germany). The supernatant was removed, neutralized with 1 mol/L aqueous sodium hydroxide solution (Fluke Chemie GmbH, Buchs, Switzerland) and stored at −20° C. until analysis.
(§5) The supernatants were analyzed by RP-HPLC with a linear acetonitrile gradient (Biosolve BV, Valkenswaard, The Netherlands) in the presence of 0.1% trifluoroacetic acid (TFA, UV-grade, Fluka Chemie GmbH, Buchs, Switzerland) as ion-pairing reagent. The fractions were co-crystallized with α-cyanohydroxycinnamic acid (Bruker Daltonik GmbH; Bremen, Germany) as matrix (5.3 mg/mL in 50% acetonitrile in 0.1% aqueous TFA) and were analyzed with a tandem mass spectrometer (MALDI-TOF/TOF-MS, 4700 Proteomics Analyzer; Applied Biosystems GmbH, Weiterstadt, Germany) in the positive-ion reflector mode. The proportion of intact peptides and their degradation products or metabolites could thus be identified and quantified at the individual time points. The control used was 25% aqueous mouse serum, which was analyzed in parallel for the same time intervals.

M. luteus 10240 = test: Growth inhibition assay (microdilution MIC); assay type: cell-based, Micrococcus luteus; details: 10240, 20 h
Method in brief: (§1)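 Broth microdilution in 1% TSB with twofold peptide series, final 128 μg/mL to 62.5 ng/mL, against 5×10^6 bacteria/mL stock suspension added 1:1. Incubated 20 h at 37 °C, growth read by absorbance at 595 nm; MIC is the lowest concentration with no growth, determined in triplicate.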

E. coli BL21 A1 = assay type: cell-based, Escherichia coli
Method in brief: as §1

[2] = test system: K. pneumoniae K6 ATCC 700603
Description: (§2) The minimum inhibitory concentrations (MIC) of the antimicrobial peptides and peptide derivatives were determined in microdilution assays. These used a continuous peptide dilution in sterile flat-bottomed 96-well microtiter plates (polystyrene, Greiner Bio-One GmbH, Frickenhausen, Germany) and a total volume of 100 μL per well. The aqueous peptide or peptidomimetic solutions were diluted with 1% TSB water, to obtain a final concentration of 256 μg/mL. 50 μL of the peptide or peptidomimetic solution was pipetted into the first well of each series and stirred. From this solution, 50 μL was transferred to the second well, stirred and again 50 μL was transferred to the next well, and so on. A double dilution series is obtained, beginning at 256 μg/mL in the first well to 125 ng/mL in the twelfth well. The bacteria, e.g. E. coli BL21 A1, were cultured overnight at 37° C. in nutrient broth (NB, Carl Roth GmbH+Co. KG, Karlsruhe, Germany). 50 μL of a 5×10^6 bacteria/mL suspension in 1% TSB was added to each well of the microtiter plate and thus a final concentration of the peptides or peptidomimetics from 128 μg/mL (well 1) to 62.5 ng/mL (well 12) was established in each series. The plates were incubated at 37° C. for 20 h and then the absorption was measured at 595 nm with a TECAN microtiter plate spectrophotometer (Tecan Trading AG, Mannedorf, Switzerland). The MIC values of all peptides and peptidomimetics were determined in triplicate. Sterile water was used as negative control.
(§3) The tests were in this case carried out in Mueller-Hinton medium (¼ concentrated), which is equivalent to 1% TSB.

E. coli 045-849 SENTRY = details: 045-849 SENTRY
Description: as §2, §3

E. coli D31 J. Wilson = details: ¼ Muller-Hinton medium
Description: as §2, §3

K. pneumoniae ATCC 27799 = test system: K. pneumoniae ATCC 27799
Description: as §2, §3

E. coli ATCC BAA-457 = details: ¼ Muller-Hinton medium
Description: as §2, §3

K. pneumoniae 012-3131 = test system: K. pneumoniae 012-3131
Description: as §2, §3

[3] = mouse, serum
Description: as §4, §5

| Molecule | half-life [1] [h] | MIC M. luteus 10240 (M. luteus 10240) [µg/mL] | MIC E. coli BL21 A1 (E. coli BL21 A1; BL21, 20 h) [µg/mL] | further results |
| --- | --- | --- | --- | --- |
| CC[C@H](C)[C@H](NC(=O)[C@H](CCCN)NC(=O)[C@H](CCCNC(=N)N)NC(=O)[C@@H]1CCCN1C(=O)[C@@H]1CCCN1C(=O)[C@H](CCCNC(=N)N)NC(=O)[C@@H]1CCCN1C(=O)[C@H](CCCNC(=N)N)NC(=O)[C@@H]1CCCN1C(=O)[C@H](CC(C)C)NC(=O)[C@H](Cc1ccc(O)cc1)NC(=O)[C@@H]1CCCN1C(=O)[C@@H]1CCCN1C(=O)[C@H](CCCCN)NC(=O)[C@H](CC(=O)O)NC(=O)[C@@H](N)C(C)C)C(=O)N[C@@H](Cc1ccc(O)cc1)C(=O)N[C@@H](CC(N)=O)C(=O)N[C@@H](CCCNC(=N)N)C(N)=O [SEQ ID NO. 61, VDKPPYLPRPRPPROIYNR-NH2] (H-VDKPPYLPRPRPPR[Orn]IYNR-NH2) | 2 |  |  |  |
| H-VDKPPYLPRPRPPRRIYNRN-NH2 [compound 17] | 0.75 | 128 | 16 |  |
| H-VDKPPYLPRPKPPRRIYNNR-OH [compound 5] |  | 16 | 16 | MIC K. pneumoniae K6 ATCC 700603 ([2]; ¼ Muller-Hinton medium): 128 µg/mL; MIC E. coli 045-849 SENTRY (E. coli 045-849 SENTRY): 16 µg/mL; MIC E. coli D31 J. Wilson (E. coli D31 J. Wilson): 64 µg/mL; MIC K. pneumoniae ATCC 27799 (K. pneumoniae ATCC 27799; ¼ Muller-Hinton medium): 128 µg/mL; MIC E. coli SEQ 102ATCC # BAA-4 57 (E. coli ATCC BAA-457): 128 µg/mL; MIC K. pneumoniae 012-3131 (K. pneumoniae 012-3131): 64 µg/mL |
| CC[C@H](C)[C@H](NC(=O)C[C@H](CCCNC(=N)N)NC(=O)[C@H](CCCNC(=N)N)NC(=O)[C@@H]1CCCN1C(=O)[C@@H]1CCCN1C(=O)[C@H](CCCNC(=N)N)NC(=O)[C@@H]1CCCN1C(=O)[C@H](CCCNC(=N)N)NC(=O)[C@@H]1CCCN1C(=O)[C@H](CC(C)C)NC(=O)[C@H](Cc1ccc(O)cc1)NC(=O)[C@@H]1CCCN1C(=O)[C@@H]1CCCN1C(=O)[C@H](CCCCN)NC(=O)[C@H](CC(=O)O)NC(=O)[C@@H](N)C(C)C)C(=O)N[C@@H](Cc1ccc(O)cc1)C(=O)N[C@@H](CC(N)=O)C(=O)N[C@@H](CCCNC(=N)N)C(N)=O [SEQ ID NO. 62] (H-VDKPPYLPRPRPPR[β3hR]IYNR-NH2) | 2.5 |  |  |  |
| H-VDKPPYLPRPRPPRPIYNR-OH [compound 20] |  | 16 | 8 | MIC K. pneumoniae K6 ATCC 700603 ([2]; ATCC 700603): 128 µg/mL; MIC E. coli 045-849 SENTRY (E. coli 045-849 SENTRY): 8 µg/mL; MIC E. coli D31 J. Wilson (E. coli D31 J. Wilson): 4 µg/mL; MIC K. pneumoniae ATCC 27799 (K. pneumoniae ATCC 27799; ATCC 27799): 64 µg/mL; MIC E. coli SEQ 102ATCC # BAA-4 57 (E. coli ATCC BAA-457): 32 µg/mL; MIC K. pneumoniae 012-3131 (K. pneumoniae 012-3131): 64 µg/mL |
| H-VDKPPYLPRPRPPRRIYNRN-OH [compound 16] |  | 16 | 8 | MIC K. pneumoniae K6 ATCC 700603 ([2]; ATCC 700603): 64 µg/mL; MIC E. coli 045-849 SENTRY (E. coli 045-849 SENTRY): 4 µg/mL; MIC E. coli D31 J. Wilson (E. coli D31 J. Wilson): 32 µg/mL; MIC K. pneumoniae ATCC 27799 (K. pneumoniae ATCC 27799; ATCC 27799): 128 µg/mL; MIC E. coli SEQ 102ATCC # BAA-4 57 (E. coli ATCC BAA-457): 32 µg/mL; MIC K. pneumoniae 012-3131 (K. pneumoniae 012-3131): 32 µg/mL |
| VDKPPYLPRPRPPRRIYNNR-OH [SEQ ID NO. 14] | < 0.5 |  |  |  |
| H-VDKPPYLPRPRPPRRIYNN-NH2 [compound 51] | 2 | 64 | 16 |  |
| H-VDKPPYLPRPRPPRRIYN-OH [SEQ ID NO. 28] | 2 |  |  | MIC E. coli BL21 A1 (E. coli BL21 A1; 1% TSB, 20 h at 37° C.): 64 µg/mL |
| VDKPPYLPRPRPPRPIYNR-NH2 [SEQ ID NO. 60] | 2 |  |  |  |
| CCCNC(=O)[C@H](CCCNC(=N)N)NC(=O)[C@H](CC(N)=O)NC(=O)[C@H](Cc1ccc(O)cc1)NC(=O)[C@@H](NC(=O)[C@H](CCCN)NC(=O)[C@H](CCCNC(=N)N)NC(=O)[C@@H]1CCCN1C(=O)[C@@H]1CCCN1C(=O)[C@H](CCCNC(=N)N)NC(=O)[C@@H]1CCCN1C(=O)[C@H](CCCNC(=N)N)NC(=O)[C@@H]1CCCN1C(=O)[C@H](CC(C)C)NC(=O)[C@H](Cc1ccc(O)cc1)NC(=O)[C@@H]1CCCN1C(=O)[C@@H]1CCCN1C(=O)[C@H](CCCCN)NC(=O)[C@H](CC(=O)O)NC(=O)[C@@H](N)C(C)C)[C@@H](C)CC [SEQ ID NO. 71, VDKPPYLPRPRPPROIYNR-NHC3H7] (H-VDKPPYLPRPRPPR[Orn]IYNR-NHPr) | > 6 |  | 4 (≈ 1.67 µM) |  |
| CCCNC(=O)[C@H](CCCNC(=N)N)NC(=O)[C@H](CC(N)=O)NC(=O)[C@H](Cc1ccc(O)cc1)NC(=O)[C@@H](NC(=O)[C@H](CCCNC(=N)N)NC(=O)[C@H](CCCNC(=N)N)NC(=O)[C@@H]1CCCN1C(=O)[C@@H]1CCCN1C(=O)[C@H](CCCNC(=N)N)NC(=O)[C@@H]1CCCN1C(=O)[C@H](CCCNC(=N)N)NC(=O)[C@@H]1CCCN1C(=O)[C@H](CC(C)C)NC(=O)[C@H](Cc1ccc(O)cc1)NC(=O)[C@@H]1CCCN1C(=O)[C@@H]1CCCN1C(=O)[C@H](CCCCN)NC(=O)[C@H](CC(=O)O)NC(=O)[C@@H](N)C(C)C)[C@@H](C)CC [SEQ ID NO. 58] (H-VDKPPYLPRPRPPRRIYNR-NHPr) | 2 |  |  |  |
| VDKPPYLPRPRPPRRIYNR-OH [SEQ ID NO. 19] | < 0.5 |  |  |  |
| CC[C@H](C)[C@H](NC(=O)[C@H](CCCCNC(=N)N)NC(=O)[C@H](CCCNC(=N)N)NC(=O)[C@@H]1CCCN1C(=O)[C@@H]1CCCN1C(=O)[C@H](CCCNC(=N)N)NC(=O)[C@@H]1CCCN1C(=O)[C@H](CCCNC(=N)N)NC(=O)[C@@H]1CCCN1C(=O)[C@H](CC(C)C)NC(=O)[C@H](Cc1ccc(O)cc1)NC(=O)[C@@H]1CCCN1C(=O)[C@@H]1CCCN1C(=O)[C@H](CCCCN)NC(=O)[C@H](CC(=O)O)NC(=O)[C@@H](N)C(C)C)C(=O)N[C@@H](Cc1ccc(O)cc1)C(=O)N[C@@H](CC(N)=O)C(=O)N[C@@H](CCCCNC(=N)N)C(N)=O [compound 67] (H-VDKPPYLPRPRPPR[hArg]IYN[hArg]-NH2) |  | 4 (≈ 1.65 µM) | 4 (≈ 1.65 µM) | half-life [3]: 0.917 h |
| CC[C@H](C)[C@H](NC(=O)[C@H](CCCNC(=N)N)NC(=O)[C@H](CCCNC(=N)N)NC(=O)[C@@H]1CCCN1C(=O)[C@@H]1CCCN1C(=O)[C@H](CCCNC(=N)N)NC(=O)[C@@H]1CCCN1C(=O)[C@H](CCCNC(=N)N)NC(=O)[C@@H]1CCCN1C(=O)[C@H](CC(C)C)NC(=O)[C@H](Cc1ccc(O)cc1)NC(=O)[C@@H]1CCCN1C(=O)[C@@H]1CCCN1C(=O)[C@H](CCCCN)NC(=O)[C@H](CC(=O)O)NC(=O)[C@@H](N)C(C)C)C(=O)N[C@@H](Cc1ccc(O)cc1)C(=O)N[C@@H](CC(N)=O)C(=O)N[C@@H](CCCN)C(N)=O [SEQ ID NO. 50, VDKPPYLPRPRPPRRIYNO-NH2] (H-VDKPPYLPRPRPPRRIYN[Orn]-NH2) | 1.5 |  |  |  |
| CC[C@H](C)[C@H](NC(=O)[C@@H]1C[C@@H](O)CN1C(=O)[C@H](CCCNC(=N)N)NC(=O)[C@@H]1CCCN1C(=O)[C@@H]1CCCN1C(=O)[C@H](CCCNC(=N)N)NC(=O)[C@@H]1CCCN1C(=O)[C@H](CCCNC(=N)N)NC(=O)[C@@H]1CCCN1C(=O)[C@H](CC(C)C)NC(=O)[C@H](Cc1ccc(O)cc1)NC(=O)[C@@H]1CCCN1C(=O)[C@@H]1CCCN1C(=O)[C@H](CCCCN)NC(=O)[C@H](CC(=O)O)NC(=O)[C@@H](N)C(C)C)C(=O)N[C@@H](Cc1ccc(O)cc1)C(=O)N[C@@H](CC(N)=O)C(=O)N[C@@H](CCCNC(=N)N)C(N)=O [compound 25] (H-VDKPPYLPRPRPPR[Hyp]IYNR-NH2) |  | 8 (≈ 3.41 µM) | 16 (≈ 6.82 µM) | half-life [3]: 4 h |
| H-VDKPPYLPRARPPRRIYNR-NH2 [compound 38] |  | 8 | 32 |  |
| H-VDKPPYLPRPRPARRIYNR-NH2 [compound 41] |  | 8 | 16 |  |
| H-VDKPPYLPRPPPPRRIYNNR-OH [compound 2] |  | 64 | 128 |  |
